Source: ChEMBL document CHEMBL1150180, “Studies on Cytotoxic Constituents in Pericarps of Mallotus japonicus, V. Three New Phloroglucinol Derivatives, Butyrylmallotochromanol, Isobutyrylmallotochromanol, and Mallotojaponol” (1990)
Converted amounts (≈) assume the structure as drawn.

The compounds below were run on KB (assay: Cytotoxicity against human KB cells). Settings: read-out: ED50 (the source's name).
Assay type: functional

How did the EC50 turn out when `CCCC(=O)c1c(O)c(Cc2c(O)c(C(C)=O)c(O)c(C)c2OC)c(O)c2c1OC(C)(C)C(O)C2` (configuration not stated) [BUTYRYLMALLOTOCHROMANOL] was run?
Its EC50 is 13.5 mg/L (≈ 27.6 µM).

`CCCC(=O)c1c(OC(C)=O)c(Cc2c(OC)c(C)c(OC(C)=O)c(C(C)=O)c2OC(C)=O)c(OC(C)=O)c2c1OC(C)(C)C(OC(C)=O)C2` (configuration not stated) was tested. Which EC50 did it give?
Its EC50 is 2.8 mg/L (≈ 4.01 µM).

`COc1c(C)c(O)c(C(C)=O)c(O)c1Cc1c(O)c2c(c(C(=O)C(C)C)c1O)OC(C)(C)C(O)C2` (configuration not stated) [ISOBUTYRYLMALLOTOCHROMANOL] was tested. Which EC50 did it give?
The EC50 was 14.6 mg/L (≈ 29.9 µM).

For `COc1c(C)c(O)c(C(C)=O)c(O)c1Cc1c(O)c2c(c(C(C)=O)c1O)OC(C)(C)C(O)C2` (configuration not stated) [MALLOTOCHROMANOL], which EC50 is on record?
The EC50 was 21 mg/L (≈ 45.6 µM).

Which EC50 does the source give for `COc1c(C)c(OC(C)=O)c(C(C)=O)c(OC(C)=O)c1Cc1c(OC(C)=O)c2c(c(C(=O)C(C)C)c1OC(C)=O)OC(C)(C)C(OC(C)=O)C2` (configuration not stated) here?
The EC50 was 4.5 mg/L (≈ 6.44 µM).

With `COc1c(C)c(OC(C)=O)c(C(C)=O)c(OC(C)=O)c1Cc1c(OC(C)=O)c(CC(OC(C)=O)C(C)(C)OC(C)=O)c(OC(C)=O)c(C(C)=O)c1OC(C)=O` (configuration not stated) as the compound, how does the EC50 read?
Its EC50 is 22.5 mg/L (≈ 29.1 µM).

How did the EC50 turn out when `COc1c(C)c(O)c(C(C)=O)c(O)c1Cc1c(O)c(CC(O)C(C)(C)O)c(O)c(C(C)=O)c1O` (configuration not stated) [MALLOTOJAPONOL] was run?
The EC50 was 22 mg/L (≈ 46 µM).
